Laboratory results: ChEMBL document CHEMBL1201862, “PubChem BioAssay data set” (2004)
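A five-concentration, 48-hour dose response in 96-well plates underlies each endpoint, interpolated linearly between surrounding concentrations. GI50 is the concentration that inhibits growth by half.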 Calls of active or inactive are those of the source. Cut-off read from the data, not from the text of the source: active = GI50 up to about 1.1 µM and inactive = higher.

Legend:
Test in all cases: DTP human tumour cell line panel, 48 h
CCRF-CEM = system: CCRF-CEM
HCC 2998 = system: HCC 2998
HCT-15 = system: HCT-15
HOP-92 = system: HOP-92
IGROV-1 = system: IGROV-1
KM12 = system: KM12
MDA-MB-435 = system: MDA-MB-435
OVCAR-3 = system: OVCAR-3
RXF 393 = system: RXF 393
SF-268 = system: SF-268
SF-295 = system: SF-295
SR = system: SR
SW-620 = system: SW-620
TK-10 = system: TK-10
U-251 = system: U-251

Row | Structure (SMILES) | GI50 (CCRF-CEM) | GI50 (HCC 2998) | GI50 (HCT-15) [µM] | GI50 (HOP-92) | GI50 (IGROV-1) | GI50 (KM12) | GI50 (MDA-MB-435) | GI50 (OVCAR-3) | GI50 (RXF 393) | GI50 (SF-268) | GI50 (SF-295) | GI50 (SR) | GI50 (SW-620) | GI50 (TK-10) | GI50 (U-251)
1 | CCOc1cc2c(cc1O)/C(=N\N)C[C@@H]1[C@@H]2CC[C@]2(C)[C@@H](O)CC[C@@H]12 | 2.38 µM (inactive) | 2.07 µM (inactive) | 1.31 | 13.2 µM (inactive) | 6.97 µM (inactive) | 4.71 µM (inactive) | 0.281 µM (active) | 2.32 µM (inactive) | 5.75 µM (inactive) | 5.3 µM (inactive) | 0.397 µM (active) | 0.333 µM (active) | 1.85 µM (inactive) | 22.2 µM (inactive) | 3.78 µM (inactive)
2 | CCOc1c(OC)cc(CNNc2nccs2)cc1OC | > 100 µM (inactive) | > 100 µM (inactive) | 28 | 67.6 µM (inactive) | > 100 µM (inactive) | > 100 µM (inactive) | 54.2 µM (inactive) | > 100 µM (inactive) | > 100 µM (inactive) | > 100 µM (inactive) | > 100 µM (inactive) | 29.5 µM (inactive) | > 100 µM (inactive) | > 100 µM (inactive) | 32.7 µM (inactive)
3 | COc1cc(C2c3cc4c(cc3OC(NCc3ccccc3)C2C)OCO4)cc(OC)c1OC (stereo unspecified) | 0.39 µM (active) | 0.687 µM (active) | 0.543 | 2 µM (inactive) | 0.448 µM (active) | 0.377 µM (active) | 0.102 µM (active) | 0.298 µM (active) | 0.206 µM (active) | 0.933 µM (active) | 0.219 µM (active) | 0.241 µM (active) | 0.331 µM (active) | 20.2 µM (inactive) | 0.39 µM (active)
4 | COc1ccc(/C=N/NC(=O)c2ccccc2Nc2ccccc2C(=O)N/N=C/c2ccc(OC)cc2)cc1 | > 100 µM (inactive) | > 100 µM (inactive) | > 100 | > 100 µM (inactive) | > 100 µM (inactive) | > 100 µM (inactive) | > 100 µM (inactive) | > 100 µM (inactive) | > 100 µM (inactive) | > 100 µM (inactive) | > 100 µM (inactive) | > 100 µM (inactive) | > 100 µM (inactive) | > 100 µM (inactive) | > 100 µM (inactive)
5 | CC[C@@]1(O)C[C@H](OC2CC(N(C)C)C(O)C(C)O2)c2c(O)c3c(c(O)c2[C@H]1OC1CC(N(C)C)C(O)C(C)O1)C(=O)c1cccc(O)c1C3=O (stereo partly specified) | 0.0687 µM (active) | 0.0284 µM (active) | 0.0585 | 0.071 µM (active) | 0.0706 µM (active) | 0.028 µM (active) | 0.0341 µM (active) | 0.051 µM (active) | 0.0255 µM (active) | 0.0603 µM (active) | 0.04 µM (active) | 0.0385 µM (active) | 0.0378 µM (active) | 0.0473 µM (active) | 0.0264 µM (active)
6 | Brc1ccc2c(-c3csc(-c4c[nH]c5cc(Br)ccc45)n3)c[nH]c2c1 | 10.2 µM (inactive) | 43.8 µM (inactive) | 12.4 | 31.1 µM (inactive) | 17 µM (inactive) | 11.8 µM (inactive) | 5.27 µM (inactive) | 52.1 µM (inactive) | 23.4 µM (inactive) | 31.2 µM (inactive) | 9.31 µM (inactive) | 5.61 µM (inactive) | 16 µM (inactive) | 30.8 µM (inactive) | 15.8 µM (inactive)
7 | Nc1ccc(S(=O)(=O)Nc2nc3ccccc3nc2N2CCCCCC2)cc1 | 33.5 µM (inactive) | 16.6 µM (inactive) | 23.9 | 23.4 µM (inactive) | 34.4 µM (inactive) | 30.9 µM (inactive) | 18.1 µM (inactive) | 18.3 µM (inactive) | 16 µM (inactive) | 45.9 µM (inactive) | 22.9 µM (inactive) | 12.5 µM (inactive) | 20 µM (inactive) | 31.8 µM (inactive) | 20.2 µM (inactive)
8 | COc1cc(C(=O)C2C(=O)c3ccccc3C2C2(O)c3ccccc3CC2C(O)c2cc(OC)c(OC)c(OC)c2)cc(OC)c1OC (stereo unspecified) | – | > 100 µM (inactive) | > 100 | 51.2 µM (inactive) | > 100 µM (inactive) | > 100 µM (inactive) | > 100 µM (inactive) | > 100 µM (inactive) | > 100 µM (inactive) | 91.4 µM (inactive) | 74.6 µM (inactive) | > 100 µM (inactive) | > 100 µM (inactive) | > 100 µM (inactive) | 41.3 µM (inactive)
9 | Nc1ccc(-c2ncc3cc(-c4cccc(-c5cc6cnc(-c7ccc(N)cc7)nc6c6ccccc56)c4)c4ccccc4c3n2)cc1 | > 100 µM (inactive) | > 100 µM (inactive) | > 100 | > 100 µM (inactive) | > 100 µM (inactive) | > 100 µM (inactive) | > 100 µM (inactive) | > 100 µM (inactive) | > 100 µM (inactive) | > 100 µM (inactive) | > 100 µM (inactive) | > 100 µM (inactive) | > 100 µM (inactive) | > 100 µM (inactive) | > 100 µM (inactive)
10 | Cn1cnc(N2CCCC2)c(C#N)c1=S | > 100 µM (inactive) | > 100 µM (inactive) | > 100 | 76.2 µM (inactive) | > 100 µM (inactive) | > 100 µM (inactive) | > 100 µM (inactive) | > 100 µM (inactive) | > 100 µM (inactive) | > 100 µM (inactive) | > 100 µM (inactive) | > 100 µM (inactive) | > 100 µM (inactive) | > 100 µM (inactive) | > 100 µM (inactive)
11 | NCCCn1c2ccccc2c2c3c(c4c(c21)CCC(O)CC4)C(=O)NC3=O (stereo unspecified) | 0.962 µM (active) | 0.845 µM (active) | 11 | 2.71 µM (inactive) | 9.79 µM (inactive) | 0.458 µM (active) | 1.53 µM (inactive) | 2.55 µM (inactive) | 2.15 µM (inactive) | 1.58 µM (inactive) | 3.22 µM (inactive) | 1.69 µM (inactive) | 1.04 µM (active) | 3.57 µM (inactive) | 1.75 µM (inactive)
12 | C1=Cc2cccc3occ(c23)C=C1 | 20.5 µM (inactive) | 29 µM (inactive) | 48 | 91.8 µM (inactive) | 54.2 µM (inactive) | 43 µM (inactive) | 82 µM (inactive) | 31.2 µM (inactive) | 25.8 µM (inactive) | > 100 µM (inactive) | > 100 µM (inactive) | 15.8 µM (inactive) | 39.1 µM (inactive) | 36 µM (inactive) | 36.3 µM (inactive)
13 | NS(=O)(=O)c1ccc(NC2(C(=O)O)CCCC2)cc1 | > 100 µM (inactive) | > 100 µM (inactive) | > 100 | > 100 µM (inactive) | > 100 µM (inactive) | > 100 µM (inactive) | > 100 µM (inactive) | > 100 µM (inactive) | > 100 µM (inactive) | > 100 µM (inactive) | > 100 µM (inactive) | > 100 µM (inactive) | > 100 µM (inactive) | > 100 µM (inactive) | > 100 µM (inactive)
14 | O=C1CCCN1C(=O)CS(=O)(=O)c1ccccc1 | > 100 µM (inactive) | > 100 µM (inactive) | > 100 | > 100 µM (inactive) | > 100 µM (inactive) | > 100 µM (inactive) | > 100 µM (inactive) | > 100 µM (inactive) | > 100 µM (inactive) | > 100 µM (inactive) | > 100 µM (inactive) | > 100 µM (inactive) | > 100 µM (inactive) | > 100 µM (inactive) | > 100 µM (inactive)
15 | COc1cc2cc(C(=O)N3CC(CCl)c4c3cc(NC(=O)OCc3ccc([N+](=O)[O-])cc3)c3ccccc43)[nH]c2c(OC)c1OC (stereo unspecified) | 8.91 µM (inactive) | 0.0226 µM (active) | > 50.2 | > 45.7 µM (inactive) | > 43.9 µM (inactive) | > 42.5 µM (inactive) | > 100 µM (inactive) | > 100 µM (inactive) | 14 µM (inactive) | 24.6 µM (inactive) | 17.2 µM (inactive) | 0.0432 µM (active) | 28.2 µM (inactive) | 0.327 µM (active) | 38.5 µM (inactive)
16 | c1ccc2cc(-c3cc(-c4cc(-c5ccc6ccccc6c5)on4)no3)ccc2c1 | 13.6 µM (inactive) | 99.1 µM (inactive) | > 100 | > 100 µM (inactive) | > 100 µM (inactive) | > 100 µM (inactive) | > 100 µM (inactive) | > 100 µM (inactive) | > 100 µM (inactive) | > 100 µM (inactive) | > 100 µM (inactive) | 55.7 µM (inactive) | > 100 µM (inactive) | > 100 µM (inactive) | > 100 µM (inactive)
17 | COc1cc(C=O)ccc1Oc1nnnn1-c1ccccc1 | 19.6 µM (inactive) | – | 62.5 | 71.4 µM (inactive) | 84.1 µM (inactive) | 55 µM (inactive) | 36.4 µM (inactive) | 45.7 µM (inactive) | > 100 µM (inactive) | 42.7 µM (inactive) | > 100 µM (inactive) | 18.9 µM (inactive) | 27.5 µM (inactive) | > 100 µM (inactive) | 85.3 µM (inactive)
18 | O=C(CCC1OCCO1)Nc1cc(NCc2ccccc2)ccc1OCc1ccccc1 | 17 µM (inactive) | 33 µM (inactive) | 35.1 | 17.8 µM (inactive) | 41.6 µM (inactive) | 30.1 µM (inactive) | 23.6 µM (inactive) | – | 28.8 µM (inactive) | 63.8 µM (inactive) | 30.2 µM (inactive) | 27.9 µM (inactive) | 42.1 µM (inactive) | 26.6 µM (inactive) | 37.1 µM (inactive)
19 | Cc1cn(C2CC(O)C(COC(=O)NCCC(F)(F)C(F)(F)C(F)(F)C(F)(F)F)O2)c(=O)[nH]c1=O (stereo unspecified) | > 100 µM (inactive) | > 100 µM (inactive) | – | 54.6 µM (inactive) | > 100 µM (inactive) | > 100 µM (inactive) | 75.2 µM (inactive) | > 100 µM (inactive) | 78.5 µM (inactive) | > 100 µM (inactive) | > 100 µM (inactive) | > 100 µM (inactive) | > 100 µM (inactive) | > 100 µM (inactive) | > 100 µM (inactive)
